From ChEMBL document CHEMBL5244269, “Improving metabolic stability and removing aldehyde oxidase liability in a 5-azaquinazoline series of IRAK4 inhibitors” (Bioorg Med Chem, 2020)

Legend:
[1] = molecular target: T1, Interleukin-1 receptor-associated kinase 4 (Homo sapiens, UniProt Q9NWZ3); experiment: Inhibition of IRAK4 (unknown origin) in presence of ATP by enzymatic assay
T1 sequence (Q9NWZ3 whole entry): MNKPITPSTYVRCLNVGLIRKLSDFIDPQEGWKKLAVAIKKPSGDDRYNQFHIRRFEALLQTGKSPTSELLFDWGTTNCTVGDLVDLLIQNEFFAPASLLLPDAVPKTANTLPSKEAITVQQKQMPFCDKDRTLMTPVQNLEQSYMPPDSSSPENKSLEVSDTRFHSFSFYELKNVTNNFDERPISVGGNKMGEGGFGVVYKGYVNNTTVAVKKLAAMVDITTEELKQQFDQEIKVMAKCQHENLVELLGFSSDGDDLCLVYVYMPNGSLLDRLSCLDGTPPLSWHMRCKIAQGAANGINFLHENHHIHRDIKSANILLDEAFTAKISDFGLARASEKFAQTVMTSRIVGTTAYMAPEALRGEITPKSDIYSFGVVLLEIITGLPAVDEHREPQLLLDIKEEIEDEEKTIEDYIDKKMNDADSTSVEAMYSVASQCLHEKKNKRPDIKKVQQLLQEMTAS

[2] = molecular target: T1, Interleukin-1 receptor-associated kinase 4; experiment: Inhibition of IRAK4 (unknown origin) phosphorylation by cell based assay
[3] = Lipophilicity, LogD at pH 7.4 of the compound by shake flask method; assay type: physicochemical; conditions: buffer
[4] = Metabolic stability in human liver microsomes assessed as intrinsic clearance; assay type: ADME, Microsome; conditions: read-out: CLH
[5] = Metabolic stability in human hepatocytes assessed as intrinsic clearance measured per 10^6 cells; assay type: ADME, cell-based, Hepatocyte; conditions: read-out: CLH
[6] = Apparent permeability across apical to basolateral side in human Caco-2 cells measured for 360 mins by liquid scintillation counting based analysis; assay type: ADME, cell-based
[7] = Efflux ratio of apparent permeability basolateral to apical side over apical to basolateral side in human Caco-2 cells measured for 360 mins by liquid scintillation counting based analysis; assay type: ADME, cell-based
[8] = Metabolic stability in human cytosol assessed as intrinsic clearance; assay type: ADME, subcellular
[9] = Clearance in human; assay type: ADME
[10] = Clearance in human assessed as liver blood flow; assay type: ADME, tissue-based
[11] = molecular target: T2, Receptor-type tyrosine-protein kinase FLT3 (Homo sapiens, UniProt P36888); experiment: Inhibition of FLT3 (unknown origin) in presence of 600 uM ATP
T2 sequence (P36888 whole entry): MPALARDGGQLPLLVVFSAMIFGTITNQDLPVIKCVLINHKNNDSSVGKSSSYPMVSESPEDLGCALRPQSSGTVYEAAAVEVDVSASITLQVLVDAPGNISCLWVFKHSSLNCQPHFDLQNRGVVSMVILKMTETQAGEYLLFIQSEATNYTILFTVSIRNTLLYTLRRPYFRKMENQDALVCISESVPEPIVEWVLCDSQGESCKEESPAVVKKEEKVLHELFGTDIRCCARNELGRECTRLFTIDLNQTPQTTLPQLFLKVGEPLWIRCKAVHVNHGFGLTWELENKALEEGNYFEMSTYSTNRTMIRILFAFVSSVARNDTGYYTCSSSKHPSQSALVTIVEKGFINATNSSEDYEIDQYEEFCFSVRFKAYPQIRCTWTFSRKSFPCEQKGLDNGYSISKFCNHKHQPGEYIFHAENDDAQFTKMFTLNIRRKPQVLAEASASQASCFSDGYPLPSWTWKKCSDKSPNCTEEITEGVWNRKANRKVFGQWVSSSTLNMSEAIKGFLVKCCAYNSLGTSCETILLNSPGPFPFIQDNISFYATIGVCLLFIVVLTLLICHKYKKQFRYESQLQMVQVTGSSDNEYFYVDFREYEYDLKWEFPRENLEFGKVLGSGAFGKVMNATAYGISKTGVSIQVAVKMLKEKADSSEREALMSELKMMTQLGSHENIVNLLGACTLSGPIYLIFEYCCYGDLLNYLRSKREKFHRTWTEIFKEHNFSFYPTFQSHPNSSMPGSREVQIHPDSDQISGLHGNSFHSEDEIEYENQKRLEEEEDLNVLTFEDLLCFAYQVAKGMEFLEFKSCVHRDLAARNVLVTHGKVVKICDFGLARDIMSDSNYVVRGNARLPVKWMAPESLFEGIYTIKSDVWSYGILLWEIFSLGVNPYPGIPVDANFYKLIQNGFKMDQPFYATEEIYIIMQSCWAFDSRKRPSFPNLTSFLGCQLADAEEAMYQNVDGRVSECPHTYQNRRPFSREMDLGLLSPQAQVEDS

[12] = organism: Homo sapiens; experiment: Selectivity index, ratio of IC50 for inhibition of FLT3 (unknown origin) to IC50 for inhibition of IRAK4 (unknown origin)
[13] = molecular target: High affinity nerve growth factor receptor (Homo sapiens, UniProt P04629); experiment: Inhibition of TRKA (unknown origin) in presence of 400 uM ATP
Chain of High affinity nerve growth factor receptor (P04629 whole entry): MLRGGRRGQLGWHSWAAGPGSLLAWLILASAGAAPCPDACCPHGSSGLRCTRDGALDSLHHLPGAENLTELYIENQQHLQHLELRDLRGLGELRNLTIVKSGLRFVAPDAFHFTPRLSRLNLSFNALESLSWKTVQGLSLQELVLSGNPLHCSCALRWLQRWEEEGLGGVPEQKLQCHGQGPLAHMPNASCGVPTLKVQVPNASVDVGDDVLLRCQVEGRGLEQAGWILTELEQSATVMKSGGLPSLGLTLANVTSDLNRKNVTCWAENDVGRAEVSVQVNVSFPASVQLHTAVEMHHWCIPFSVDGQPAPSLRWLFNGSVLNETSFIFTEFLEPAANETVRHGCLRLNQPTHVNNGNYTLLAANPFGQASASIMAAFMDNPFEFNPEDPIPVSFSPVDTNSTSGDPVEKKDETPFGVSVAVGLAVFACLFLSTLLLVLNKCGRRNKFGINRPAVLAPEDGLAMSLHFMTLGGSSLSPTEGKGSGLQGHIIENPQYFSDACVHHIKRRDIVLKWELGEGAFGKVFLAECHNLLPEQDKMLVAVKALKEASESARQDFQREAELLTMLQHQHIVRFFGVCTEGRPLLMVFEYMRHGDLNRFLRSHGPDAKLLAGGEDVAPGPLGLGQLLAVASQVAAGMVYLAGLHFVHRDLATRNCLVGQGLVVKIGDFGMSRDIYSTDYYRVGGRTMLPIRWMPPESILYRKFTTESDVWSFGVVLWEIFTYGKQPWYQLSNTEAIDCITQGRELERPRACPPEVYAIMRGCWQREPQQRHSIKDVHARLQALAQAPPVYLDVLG

Structure (SMILES)	IC50 [1] [nM]	IC50 [2] [nM]	logD [3]	microsomal CLint [4] [µL/min/mg]	hepatocyte CLint [5] [µL/min/1e6 cells]	Papp A→B at 6 h [6] [×10⁻⁶ cm/s]	efflux ratio at 6 h [7]	microsomal CLint [8] [µL/min/mg]	clearance [9] [mL/min/kg]	LBF [10] [%]	IC50 [11] [nM]	Ratio IC50 [12]	IC50 [13] [nM]
CN1CCC(n2cc(Nc3nc(OC4(C)CC4)c4nc(-c5cccnc5)ccc4n3)cn2)CC1	1	120	2.6	130	–	–	–	–	–	–	–	–	–
CN1CCC(n2cc(Nc3nc(OC4(C)CC4)c4nc(-c5cn(C)nn5)ccc4n3)cn2)CC1	19	510	1.8	13	< 1	–	–	–	–	–	–	–	–
Cc1ncc(-c2nc3c(OC4(C)CC4)nc(Nc4cnn([C@@H]5C[C@@H]6C[C@H]5CN6C)c4)nc3cc2F)cn1	4	310	1.7	15	< 1	–	–	–	–	–	–	–	–
Cn1cc(Nc2nc(NC3COC3)c3nc(CC#N)ccc3n2)cn1	447	9400	1.2	–	–	–	–	–	–	–	–	–	–
CC(=O)N1CCC(n2cc(Nc3nc(NC4CCOCC4)c4nc(CC#N)ccc4n3)cn2)CC1	12	670	1.4	26	–	4.1	86	–	–	–	–	–	–
Cn1cc(Nc2nc(NC3CCOCC3)c3nc(CC#N)ccc3n2)cn1	139	2100	1.7	–	–	–	–	–	–	–	–	–	–
Cc1ccc2nc(Nc3cnn(C4CCN(C)CC4)c3)nc(OC3(C)CC3)c2n1	3	100	1.8	18	1.9	20	2.5	< 0.5	5	20	16	> 30	–
N#CCc1ccc2nc(Nc3cnn(C4CCOCC4)c3)nc(NC3CCOCC3)c2n1	15	570	1.9	110	–	–	–	–	–	–	–	–	–
CN1CCC(n2cc(Nc3nc(OC4(C)CC4)c4nc(-c5ccnnc5)ccc4n3)cn2)CC1	1	130	1.7	48	8.4	–	–	–	–	–	–	–	–
CN1CCC(n2cc(Nc3nc(OC4(C)CC4)c4nc(C(=O)N(C)C)ccc4n3)cn2)CC1	13	670	1.2	< 4.5	1.7	1.5	17	–	–	–	–	–	–
COC(=O)N1CCN([C@H]2CC[C@H](Nc3nc(Nc4cnn(C)c4)nc4ccc(CC#N)nc34)CC2)CC1	3	170	–	–	–	9.3	24	–	13	70	–	–	–
Cc1ncncc1-c1ccc2nc(Nc3cnn(C4CCN(C)CC4)c3)nc(OC3(C)CC3)c2n1	5	170	1.9	44	4.7	–	–	4.8	–	–	–	–	–
Cn1cc(Nc2nc(NC3CC3)c3nc(CC#N)ccc3n2)cn1	22	490	2.1	–	–	–	–	–	–	–	–	–	–
Cc1ncc(-c2ccc3nc(Nc4cnn(C5CCN(C)CC5)c4)nc(OC4(C)CC4)c3n2)c(C)n1	7	260	2.1	23	3.4	–	–	2.2	–	–	–	–	–
Cc1ncc(-c2nc3c(OC4(C)CC4)nc(Nc4cnn([C@@H]5C[C@H]6C[C@@H]5CN6C)c4)nc3cc2F)cn1	32	1100	1.5	14	–	–	–	–	–	–	–	–	–
CN1CCC(n2cc(Nc3nc(OC4(C)CC4)c4nc(-c5cnn(C)c5)ccc4n3)cn2)CC1	3	210	2.2	15	1.7	–	–	–	–	–	170	< 5	–

Structure (SMILES)	IC50 [1] [nM]	IC50 [2] [nM]	logD [3]	microsomal CLint [4] [µL/min/mg]	hepatocyte CLint [5] [µL/min/1e6 cells]	Papp A→B at 6 h [6] [×10⁻⁶ cm/s]	efflux ratio at 6 h [7]	microsomal CLint [8] [µL/min/mg]	clearance [9] [mL/min/kg]	LBF [10] [%]	IC50 [11] [nM]	Ratio IC50 [12]	IC50 [13] [nM]
Cc1ncc(-c2nc3c(NC4(C)CC4)nc(Nc4cnn(C5CC6(C5)CN(C)C6)c4)nc3cc2F)cn1	0.6	54	2.1	11	< 1	–	–	–	–	–	–	–	–
CN1CCC(n2cc(Nc3nc(OC4(C)CC4)c4nc(-c5cncnc5)c(F)cc4n3)cn2)CC1	1	29	–	88	14	–	–	20	–	–	–	–	–
CC(=O)N1CCC(n2cc(Nc3nc(OC4CCOCC4)c4nc(CC#N)ccc4n3)cn2)CC1	32	2000	1.2	5	–	–	–	–	–	–	–	–	–
Cc1ncc(-c2nc3c(OC4(C)CC4)nc(Nc4cnn(C5CC6(C5)CN(C)C6)c4)nc3cc2F)cn1	3	220	1.4	< 3	< 1	–	–	–	–	–	–	–	–
CC(C)Nc1nc(Nc2cnn(C)c2)nc2ccc(CC#N)nc12	51	570	2.4	–	–	–	–	–	–	–	–	–	–
Cc1ncncc1-c1nc2c(OC3(C)CC3)nc(Nc3cnn(C4CCN(C)CC4)c3)nc2cc1F	15	480	2.2	53	5.5	–	–	< 0.5	–	–	–	–	–
CC(=O)N1CCC(n2cc(Nc3nc(OC4CCOCC4)c4nc(C)ccc4n3)cn2)CC1	3	71	2.3	33	4.6	45	2.6	–	–	–	30	–	20
Cn1cc(Nc2nc(N[C@@H]3CCOC3)c3nc(CC#N)ccc3n2)cn1	211	3500	1.5	–	–	–	–	–	–	–	–	–	–
CN1CCC(n2cc(Nc3nc(OC4(C)CC4)c4nc(-c5ccn(C)n5)ccc4n3)cn2)CC1	490	21000	2.1	18	–	–	–	–	–	–	–	–	–
CN1CCC(n2cc(Nc3nc(OC4(C)CC4)c4nc(C5CC5)ccc4n3)cn2)CC1	2	38	2.8	37	4.6	–	–	–	–	–	–	–	–
Cc1nc2c(OC3(C)CC3)nc(Nc3cnn(C4CC5(C4)CN(C)C5)c3)nc2cc1F	3	200	2.2	< 3	4	–	–	–	–	–	–	–	–
CN1CC2(CC(n3cc(Nc4nc(OC5(C)CC5)c5nc(C6CC6)c(F)cc5n4)cn3)C2)C1	3	300	2.6	< 3	< 1	–	–	–	–	–	–	–	–
Cc1ncc(-c2ccc3nc(Nc4cnn(C5CCN(C)CC5)c4)nc(OC4(C)CC4)c3n2)cn1	1.8	140	2.2	52	170	–	–	69	–	–	–	–	–
Cn1cc(Nc2nc(N[C@H]3CCOC3)c3nc(CC#N)ccc3n2)cn1	113	2600	1.6	–	–	–	–	–	–	–	–	–	–
Cn1cc(Nc2nc(NC3(C)CC3)c3nc(CC#N)ccc3n2)cn1	2	110	2.7	–	71	–	–	–	–	–	–	–	–
CN1CCC(n2cc(Nc3nc(OC4(C)CC4)c4nc(-c5cn(C)cn5)ccc4n3)cn2)CC1	730	6800	1.8	14	–	–	–	–	–	–	–	–	–
